These results are taken from patent publication US11673855B2, “Voltage gated sodium channel imaging agents” (The General Hospital Corporation, priority 2017, dated 2023).

For data set [1], the target named is T1, SCN5A (Homo sapiens, UniProt Q14524).
T1 construct: Non-failing human donor heart samples were compared to explanted tissue from patients who had suffered from heart failure; from tissue; host or cells: human left ventricular myocardium (non-failing donor hearts and explanted DCM-failing hearts)
T1 sequence (Q14524 whole entry): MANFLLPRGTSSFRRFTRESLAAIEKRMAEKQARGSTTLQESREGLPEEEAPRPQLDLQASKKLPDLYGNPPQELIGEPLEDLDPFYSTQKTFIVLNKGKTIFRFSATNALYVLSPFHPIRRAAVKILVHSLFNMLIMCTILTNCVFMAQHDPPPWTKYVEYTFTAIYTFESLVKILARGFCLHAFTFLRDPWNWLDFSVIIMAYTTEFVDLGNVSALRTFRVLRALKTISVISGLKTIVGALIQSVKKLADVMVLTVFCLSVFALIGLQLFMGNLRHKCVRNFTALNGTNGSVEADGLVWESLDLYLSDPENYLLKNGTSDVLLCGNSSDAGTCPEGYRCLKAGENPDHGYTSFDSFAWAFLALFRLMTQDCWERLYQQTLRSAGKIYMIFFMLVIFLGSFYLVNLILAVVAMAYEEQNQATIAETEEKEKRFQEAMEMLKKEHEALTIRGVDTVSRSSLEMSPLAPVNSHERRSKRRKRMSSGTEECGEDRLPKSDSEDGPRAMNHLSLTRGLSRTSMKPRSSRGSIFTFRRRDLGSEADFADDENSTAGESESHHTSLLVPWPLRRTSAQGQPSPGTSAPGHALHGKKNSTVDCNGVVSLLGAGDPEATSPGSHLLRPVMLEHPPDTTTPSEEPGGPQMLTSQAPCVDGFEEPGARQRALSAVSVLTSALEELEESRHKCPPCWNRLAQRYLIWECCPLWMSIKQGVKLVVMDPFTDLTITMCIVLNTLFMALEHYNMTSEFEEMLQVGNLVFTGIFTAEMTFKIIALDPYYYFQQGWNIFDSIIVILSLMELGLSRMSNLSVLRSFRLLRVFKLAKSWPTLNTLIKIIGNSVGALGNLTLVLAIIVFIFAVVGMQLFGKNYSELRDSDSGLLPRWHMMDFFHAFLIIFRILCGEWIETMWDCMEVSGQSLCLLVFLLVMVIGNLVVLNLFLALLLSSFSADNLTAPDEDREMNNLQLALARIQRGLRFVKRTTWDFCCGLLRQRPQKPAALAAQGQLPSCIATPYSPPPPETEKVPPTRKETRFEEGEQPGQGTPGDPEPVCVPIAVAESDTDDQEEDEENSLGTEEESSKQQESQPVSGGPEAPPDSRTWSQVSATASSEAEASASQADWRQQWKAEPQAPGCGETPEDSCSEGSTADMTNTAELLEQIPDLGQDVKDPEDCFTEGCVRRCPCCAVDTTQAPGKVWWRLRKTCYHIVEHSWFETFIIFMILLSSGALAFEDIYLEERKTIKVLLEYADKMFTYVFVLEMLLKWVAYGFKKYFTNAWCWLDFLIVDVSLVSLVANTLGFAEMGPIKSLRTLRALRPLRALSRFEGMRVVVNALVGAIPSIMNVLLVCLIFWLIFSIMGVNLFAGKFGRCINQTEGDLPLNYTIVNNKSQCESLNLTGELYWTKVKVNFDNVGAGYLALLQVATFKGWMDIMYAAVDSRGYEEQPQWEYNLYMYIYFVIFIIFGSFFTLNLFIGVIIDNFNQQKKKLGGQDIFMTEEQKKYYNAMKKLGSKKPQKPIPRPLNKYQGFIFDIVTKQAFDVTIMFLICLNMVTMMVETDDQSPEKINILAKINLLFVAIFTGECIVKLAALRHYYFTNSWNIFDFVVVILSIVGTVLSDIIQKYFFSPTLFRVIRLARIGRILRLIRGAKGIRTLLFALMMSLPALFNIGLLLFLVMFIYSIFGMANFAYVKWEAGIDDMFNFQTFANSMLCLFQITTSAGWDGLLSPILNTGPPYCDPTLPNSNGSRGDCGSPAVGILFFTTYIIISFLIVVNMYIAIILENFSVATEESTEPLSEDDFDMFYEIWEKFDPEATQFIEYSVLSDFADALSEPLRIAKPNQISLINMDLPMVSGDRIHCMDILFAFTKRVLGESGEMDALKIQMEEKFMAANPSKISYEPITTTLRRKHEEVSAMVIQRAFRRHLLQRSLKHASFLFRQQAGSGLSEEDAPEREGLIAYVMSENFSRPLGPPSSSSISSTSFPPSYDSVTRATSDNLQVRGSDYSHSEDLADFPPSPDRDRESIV
Put plainly: Ex vivo autoradiography of human heart tissue, self-displacement dose-response. The format is binding. The settings on record: self-inhibition, modified Cheng-Prusoff equation. From the text:
Non-failing human donor heart samples were compared to explanted tissue from patients who had suffered from heart failure due to idiopathic dilated cardiomyopathy (DCM) and required cardiac transplantation, as shown in FIGS. 4A-4B (see e.g., Japp et al, J. Am. Coll. Cardiol. 2016, 67:2996-3010).
To exclude that the reduced signal was the result of a decrease in affinity in diseased vs. healthy tissue and confirm a deficit in channel density, dose-response experiments were performing using N-(2,6-dimethylphenyl)-2-(ethyl(2-fluoroethyl)amino)acetamide as the competition ligand. Using the modified Cheng-Prusoff equation for self-inhibition, these measurements allowed for the determination of Kd-values for the groups NF1 and F1, as shown in FIG. 4B. […] A ˜30% reduction in Bmax was observed.

Data set [2] deals with T2, SCN5A (Rattus norvegicus, UniProt P15389).
T2 construct: Heart sections ([…] thickness) were prepared using a −20° C. cryostat and thaw-mounted onto gelatin-coated slides; from tissue; host or cells: rat heart (myocardium) cryosections
T2 sequence (P15389 whole entry): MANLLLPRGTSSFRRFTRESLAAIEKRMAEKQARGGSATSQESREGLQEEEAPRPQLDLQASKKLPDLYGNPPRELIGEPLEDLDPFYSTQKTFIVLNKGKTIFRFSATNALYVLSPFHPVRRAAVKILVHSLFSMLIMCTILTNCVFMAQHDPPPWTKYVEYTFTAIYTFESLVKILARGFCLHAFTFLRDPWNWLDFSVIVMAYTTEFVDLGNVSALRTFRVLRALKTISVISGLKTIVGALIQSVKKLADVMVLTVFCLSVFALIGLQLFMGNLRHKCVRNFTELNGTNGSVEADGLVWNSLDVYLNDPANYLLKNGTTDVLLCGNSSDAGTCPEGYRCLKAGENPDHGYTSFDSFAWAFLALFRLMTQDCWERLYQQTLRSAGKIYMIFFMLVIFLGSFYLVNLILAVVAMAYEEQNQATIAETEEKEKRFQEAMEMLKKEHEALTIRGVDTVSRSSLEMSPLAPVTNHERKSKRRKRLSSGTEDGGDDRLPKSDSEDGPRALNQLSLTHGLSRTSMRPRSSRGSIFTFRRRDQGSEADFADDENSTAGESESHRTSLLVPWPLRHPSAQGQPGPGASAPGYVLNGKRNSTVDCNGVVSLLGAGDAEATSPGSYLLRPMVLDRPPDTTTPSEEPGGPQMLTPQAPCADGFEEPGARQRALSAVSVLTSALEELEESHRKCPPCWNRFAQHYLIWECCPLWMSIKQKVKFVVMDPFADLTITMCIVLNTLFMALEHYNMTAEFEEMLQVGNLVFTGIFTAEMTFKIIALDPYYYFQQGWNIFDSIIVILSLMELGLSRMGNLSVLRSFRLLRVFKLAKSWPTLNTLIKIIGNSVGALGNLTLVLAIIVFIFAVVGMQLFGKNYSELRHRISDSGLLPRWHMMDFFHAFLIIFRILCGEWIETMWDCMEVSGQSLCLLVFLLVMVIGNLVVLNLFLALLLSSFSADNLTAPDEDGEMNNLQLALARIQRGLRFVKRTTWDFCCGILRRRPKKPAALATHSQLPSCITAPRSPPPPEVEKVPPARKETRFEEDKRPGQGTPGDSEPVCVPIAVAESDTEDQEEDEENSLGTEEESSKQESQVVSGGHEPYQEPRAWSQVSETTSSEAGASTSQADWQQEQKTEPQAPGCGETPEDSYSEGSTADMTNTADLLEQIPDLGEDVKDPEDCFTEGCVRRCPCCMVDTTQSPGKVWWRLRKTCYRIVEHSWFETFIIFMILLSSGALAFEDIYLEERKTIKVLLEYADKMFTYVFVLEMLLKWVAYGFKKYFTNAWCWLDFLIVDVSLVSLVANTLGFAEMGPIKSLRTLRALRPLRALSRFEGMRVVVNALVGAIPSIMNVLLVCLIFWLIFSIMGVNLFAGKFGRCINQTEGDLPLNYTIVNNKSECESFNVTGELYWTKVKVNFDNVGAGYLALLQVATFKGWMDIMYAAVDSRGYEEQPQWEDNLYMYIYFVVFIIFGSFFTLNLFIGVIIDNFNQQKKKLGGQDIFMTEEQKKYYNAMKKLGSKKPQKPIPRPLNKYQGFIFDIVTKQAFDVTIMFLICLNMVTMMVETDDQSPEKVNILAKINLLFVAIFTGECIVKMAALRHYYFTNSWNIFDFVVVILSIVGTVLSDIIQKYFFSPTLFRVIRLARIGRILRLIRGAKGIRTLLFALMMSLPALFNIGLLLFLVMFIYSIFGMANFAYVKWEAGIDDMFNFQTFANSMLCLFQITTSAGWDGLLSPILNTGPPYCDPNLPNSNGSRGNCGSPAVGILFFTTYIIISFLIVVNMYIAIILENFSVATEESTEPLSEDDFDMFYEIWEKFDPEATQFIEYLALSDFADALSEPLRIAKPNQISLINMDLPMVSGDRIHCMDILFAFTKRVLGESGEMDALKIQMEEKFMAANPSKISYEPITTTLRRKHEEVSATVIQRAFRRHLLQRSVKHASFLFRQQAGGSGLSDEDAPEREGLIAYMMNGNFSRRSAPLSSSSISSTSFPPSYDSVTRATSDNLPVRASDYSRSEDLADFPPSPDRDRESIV
The experiment in a line: Ex vivo F-18 autoradiography of rat myocardium. The format is binding. The method, then: Heart sections ([…] thickness) were prepared using a −20° C. cryostat and thaw-mounted onto gelatin-coated slides. The slides were stored at −20° C. until the day of the experiment. […] Individual images of sections were cropped using ImageJ with no additional adjustment to color levels/thresholds. The experimental setup was designed such that both baseline and competition experiments contained the same amount of radioactivity and were imaged on the same screen. […] For variation of washing times, the incubation was held constant at 15 min.

Data set [3] relates to myocardium of non-human primates. Put plainly: PET/MR imaging of non-human primates. The format is in vivo. The procedure:
Two female baboons (Papio anubis, weight=15.2±1.6 kg) were deprived of food for 12 h prior to the study. Anesthesia was induced with intramuscular ketamine (10 mg/kg) and xylazine (0.5 mg/kg). After endotracheal intubation, the baboons were catheterized antecubitally for injection of the radiolabeled compound. Anesthesia was maintained using isoflurane (1-1.5%, 100% oxygen, 1 L/min) during the scan, and ketamine/xylazine effects were reversed with yobine (0.11 mg/kg, i.m.) before image acquisition. Vital signs, including heart rate, respiration rate, blood pressure, O2 saturation, and end tidal CO2, were monitored continuously and recorded every 15 min. Simultaneous PET/MR data were acquired using a Siemens Biograph mMR system (Siemens Healthcare, Erlangen, Germany). Each animal underwent a baseline and a blocking scan on two separate days. MR body imaging was performed with real-time respiratory bellow gating and using the body matrix coil and the built-in spine coil as the receiving coil elements. High-resolution anatomical T1-weighted, dual echo, gradient echo sequence was acquired with the following parameters: TR=194 ms, TE1/TE2=1.23/2.46 ms, matrix size 256×256, FOV=35 cm, phase FOV 65.6% (in-plane resolution=1.4 mm), 4 mm slice thickness, and 80 slices. For the purpose of MR-based attenuation correction of the PET data, a T1-weighted, 2-point Dixon 3D volumetric interpolated breath-hold examination (VIBE) scan was obtained. PET data were obtained using a single-bed position with an axial field of view of 25.8 cm, and a transverse field of view of 59.4 cm. PET data were acquired dynamically for 60 min (bolus injection of N-(2,6-dimethylphenyl)-2-(ethyl(2-(fluoro-^18F)ethyl)amino)acetamide) or 90 min (bolus/infusion of N-(2,6-dimethylphenyl)-2-(ethyl(2-(fluoro-^18F)ethyl)amino)acetamide) after intravenous administration of N-(2,6-dimethylphenyl)-2-(ethyl(2-(fluoro-^18F)ethyl)amino)acetamide (5.0±0.2 mCi bolus or 4 mCi bolus+4 mCi infusion). […] Standard uptake unit (SUV) was calculated as the mean radioactivity per injected dose per weight.

Data set [4] relates to rat myocardium. Put plainly: Rodent PET-CT imaging of the myocardium, single bolus and bolus+infusion, with lidocaine block. The format is in vivo. The method, then: Male Sprague-Dawley rats (400-500 g) were anesthetized with inhalational isoflurane (Forane) (3% in a carrier of 1.5-2 L/min medical oxygen for induction and 2% isoflurane for maintenance of anesthesia during the scan). Lateral tail vein catheters were placed for intravenous (i.v.) injection of the compounds. Two rats were arranged head-to-head in a Triumph Trimodality PET/CT/SPECT scanner (Gamma Medica, Northridge, Calif.) or a MicroPET P4 scanner. […] Dynamic PET acquisition was performed over 45 min and was followed by computed tomography (CT) for anatomic coregistration and attenuation correction. […] Reconstructed images were exported from the scanner in DICOM format along with an anatomic CT for rodent studies. These files were imported to AMIDE and Gaussian filtered (kernel size=15, fwhm=1.5 mm). Regions of interest (ROIs) were drawn manually at the lung and myocardium guided by high-resolution CT structural images and summed PET data. Time-activity-curves (TACs) were exported in terms of decay corrected activity per unit volume at specified time points with gradually increasing intervals.

Molecules are shown by their SMILES. Entries after “also recorded” stand apart in the source; their conditions may differ.

`CCN(CCF)CC(=O)Nc1c(C)cccc1C` [Example 1, N-(2,6-dimethylphenyl)-2-(ethyl(2-fluoroethyl)amino)acetamide]: the “Kd-values, non-failing (NF1) vs failing (F1) left ventricular tissue” value in data set [1] is given as “no difference in Kd-values between the groups”. In addition, the “level of non-specific / non-displaceable binding (BNS) as competition ligand” value in data set [2] (competition ligands at the same concentration against the 18F tracer) is on record as “same level of BNS as lidocaine; also recorded: same level of non-displaceable binding”.
For the molecule `CCN(CC[18F])CC(=O)Nc1c(C)cccc1C` [Example 2, N-(2,6-dimethylphenyl)-2-(ethyl(2-(fluoro-^18F)ethyl)amino)acetamide], the estimated residence time in data set [3] (bolus 4 mCi + infusion 4 mCi over 90 min, lidocaine challenge) was 5 min⁻¹. Besides, in data set [3] (single bolus, healthy baboon), the “time after which blood background cleared” value was 2 to 3 min. For the same molecule, in data set [4] (from time course of signal reduction after lidocaine, estimation), the “residence time (t1/2^−1) of the radiotracer” value is approximately 1 min⁻¹. Moreover, the “time to stable baseline signal” value in data set [4] (i.v. bolus ~150 μCi followed by constant infusion ~300 μCi over 60 min) stood at 20 min. Further, the “time for tracer bolus to reach peak signal” value in data set [4] (single bolus) worked out at 3 min. In data set [4] (single i.v. bolus), the “time after bolus injection at which blood pool had cleared and myocardial signal was revealed” value came to 3 min. Moreover, the myocardial baseline signal entry in data set [4] (single i.v. bolus, healthy rats) is given as “up to 2 % ID/cc”. Besides, the “reduction of total binding on wash-out” value in data set [2] (after 1 min wash, incubation 15 min) turned out to be 50%. Besides, the “incubation time after which specific binding (BS) reached a constant level” value in data set [2] (incubation times 1, 5, 10, 20 min, wash 1 min) is listed as 5 min. In addition, the “specific binding (BS) as share of overall binding” value in data set [2] (rat myocardial slices 20 μm, self-competition with excess (500 μM) unlabeled compound) is on record as approximately 70%.
As to `CCN(CC)CC(=O)Nc1c(C)cccc1C` [lidocaine, reference compound], in data set [3] (5 mg/kg i.v. lidocaine 5 min prior to tracer), the “effect of lidocaine pre-block on myocardial tracer signal” value is “blocked the myocardial signal; also recorded: suppressed the myocardial signal to background levels”. In addition, the “time to plateau of full block after the pharmacological dose” value in data set [4] (5 mg/kg lidocaine) stood at 3 minutes. In data set [4] (5 mg/kg lidocaine i.v., bolus+infusion paradigm), the “reduction of tracer signal by in-scan lidocaine challenge” value is recorded as “complete reduction of the radiolabeled compound signal to background level”. Moreover, the “lidocaine dose from which reduction of myocardial tracer signal was observed” value in data set [4] (i.v. 5 min before tracer, compared to vehicle) is recorded as 0.1 mg/kg. Also, in data set [4] (in-scan lidocaine challenges 0.5-5 mg/kg i.v., bolus+infusion, estimation), the “in vivo IC50 at the myocardium” value is approximately 0.7 mg/kg.
